Assay results from patent US11213815B2, “Netwell assay plate system” (VIB VZW, priority 2016, dated 2022).

System: Arabidopsis plants
Experiment: Arabidopsis netwell growth assay (rosette area over time, plants grown in soil in the multiwell plate system)
Format: in vivo
Experimental: In the Arabidopsis […] growth assay, plants were grown in soil inside a 24 well […] insert plate comprising a polystyrene porous membrane with a pore size of about 420 μm, which is positioned into a 24 well irrigation plate (FIG. 1, 2). Before sowing, seeds were vernalized in water at 4 degrees Celsius for two days. Afterwards, the […] insert plate was filled with fine potting soil, or optionally with soil mixed with sand (ratio 3:1). During this process the soil (or soil with sand) was compressed two times (or optionally three times for soil/sand) by applying a light pressure onto the individual […]. A “humidity control” soil sample was taken for determination of the initial soil water humidity (see later). Next, one mL of water was added to each of the wells of the irrigation plates. The […] insert plates were positioned inside the irrigation plates and the mounted plates were sealed with (plastic) tape surrounding the edges, to prevent excessive water evaporation from the boundary wells as compared to the center wells of the 24 well plate. This was a crucial step to avoid growth differences between plants in boundary and center wells, and to obtain reproducible results. Next, the weight of the combined insert and irrigation plates was recorded. When seeds were used as samples, during the sowing of the Arabidopsis seeds, one seed was distributed in each of the wells. For germination, the […] insert plates were covered with a standard multiwell cover plate which was sealed with parafilm and was placed inside a plant growth chamber. After three days, the covers were removed and the plants continued to grow at normal atmospheric conditions. At 7 days after sowing, or when the appropriate plant stage was reached (e.g. 7 and 10 or 5 and 7 days), the plants received a (chemical) treatment. Therefore, 0.5 (optionally 0.8 mL for soil with sand) of a (chemical-containing) solution was added to each of the wells via the corresponding access holes. Each plant sample receives the supplied (same) amount of (chemical) solution. In the days following the treatment, the plants were again irrigated with water to maintain a soil water humidity of 3.5 (or optionally 0.95 for soil with sand) (see below). In the 24 well format the growth of Arabidopsis plants was typically followed for about 15 days, during which image analysis procedures were used to follow the growth of the individual plant samples over time and to quantify the growth response of these plants in response to the specific (chemical) treatments. The initial soil water humidity was determined by first drying the “humidity control” soil sample in an oven at 60 degrees Celsius, to obtain the “dry weight”. Next, taking into account the weight of the empty irrigation plates, the empty […] insert plates, and the current weight of the combined insert and irrigation plates, water was added to each of the wells to reach a “soil water humidity” of “3.5 gram water per gram of dry soil” or “3.5” (optionally, when soil with sand was used: “0.95 gram water per gram of dry soil (with sand)” was used as initial soil water humidity value). Water was added into the irrigation plate wells through the access holes present in the corresponding […] insert plate wells using a repetition pipet. Due to equal evaporation of water from individual wells within one insert plate, each well of the irrigation plate received the same amount of water, rounded to 100 μL. The water, added to the wells in the irrigation plates, is taken up by the soil present in the hollow chambers of the […] insert plate wells, through the mesh by capillary forces (FIG. 3B). This irrigation was repeated on a daily basis to prevent excessive drying of the soil in the wells. This watering regime is suitable for frequently used Arabidopsis growth conditions, but can be altered and further optimized when a plant drought-stress response is the desired testing regime. Plants were grown as described in the above […] assay method. […]

CC(C)(C)[C@@H](O)[C@@H](Cc1ccc(Cl)cc1)n1cncn1 (racemic) [Paclobutrazol] was tested, and the “effect on plant growth (rosette area), dose response” value (Example 6, 0.8 mL at 7 and 10 DAS, Paclobutrazol 10, 20, 100 μM vs 0.1% DMSO, FIG. 8B) was “plant growth retarding effect”.
With c1ccc(CNc2ncnc3nc[nH]c23)cc1 [BAP, 6-Benzylaminopurine] the “effect on plant growth (average projected rosette area over time)” value (Example 2, 0.5 mL treatment solution at 8 DAS, 10 μM Kresoxim-methyl or 10 μM 6-Benzylaminopurine, imaging 4-16 DAS, vs water control, FIG. 4) was “shoot growth inhibition”.
In the case of O=C(O)Cc1cccc2ccccc12 [NAA, 1-Naphthaleneacetic acid], the “rosette size versus NAA concentration” value (Example 5, 0.8 mL at 7 and 10 DAS, 1, 10, 20, 100 μM NAA vs DMSO vehicle, imaging 4-14 DAS, FIG. 7B) is reported as “The higher the concentration of NAA during the treatment, the smaller the rosette size” and the maximal inhibitory concentration (Example 5, rosette growth, concentration at which maximal inhibition was probably already reached) is reported as at most 50 µM.
For O=C(O)/C=C\c1ccccc1 [cis-CA, cis-cinnamic acid], the “effect on plant growth (rosette area) at higher concentration, dose response” value (Example 6, 0.8 mL at 7 and 10 DAS, cis-CA 20, 50, 100 μM vs 0.1% DMSO, FIG. 8A) was “plant growth retarding effect”, the “effect on plant growth (rosette area) at low concentration” value (Example 6, 0.8 mL at 7 and 10 DAS, cis-CA at 1 (unit not given) vs 0.1% DMSO, FIG. 8A) was “slightly positive effect” and the “toxicity for the plant at higher concentration” value (Example 6, cis-CA at higher concentration (20, 50, 100 μM), FIG. 8A) was “rather toxic for the plant”.
